Entries after “also recorded” stand apart in the source; their conditions may differ.
Assays:
naive CD4^+ T cells = test: In vitro differentiation and proliferation induced by phenylalanine and isoleucine; format: cell-based, mouse; conditions: amino acid added directly to naive CD4^+ T cell culture
Procedure: In Vitro differentiation and proliferation induced by phenylalanine and isoleucine. Naive CD4^+ T cells were separated from the splenocytes of 8-month-old C57BL/6 female mice using the Naive CD4^+ T cell Isolation Kit (Stem Cell, #19765), and the cells were stained with CellTrace (Thermo Fisher, #C34557). A total of 1×10^5 cells/well in 0.2 mL of RPMI-1640 medium were plated in 96-well plates, and the culture medium was supplemented with cytokines or blocking antibodies. Th0: 10 ng/mL mIL-2; Th1:10 ng/mL mIL-2, 5000 ng/mL 11B11. Phenylalanine (final concentration, 2 mmol/L), isoleucine (final concentration, 2 mmol/L) and OM1 (final concentration, 100 μg/mL) were added into the indicated wells, respectively. After incubation at 37° C. in 5% CO2 for 5 days, cells were acquired on a BD Fortessa cytometer, and data were analyzed using FlowJo software.

Th1 cells [1] = test: Intraperitoneal injection of phenylalanine and isoleucine, blood Th1 cells; format: in vivo, mouse; conditions: WT (C57) mice, intraperitoneal injection 50 mg/kg for 4 days
Procedure: Animals. Tg mice and co-housed WT mice (corresponding WT mice generated by mating Tg mice and C57 mice) were housed in the same cage after birth. WT mice (C57) were housed in separate cages to avoid cross-transfer of microbiota. All mice were kept in a 23° C. room with a 12-hour (h) light-dark cycle. Mice were randomly assigned to different groups before treatment. For time course analysis of Tg mice, male and female Tg mice were sacrificed at 2, 3, 5, 7 and 9 months of age. The mouse brain was collected and stained for immune cell analysis and cytokine analysis. Before the mice were sacrificed, feces were collected for gut microbiota analysis. For OM1 treatment, at the age of 6.5 months, based on 450 mg b.i.d. (twice a day) in the phase III trial, Tg mice were treated with 100 mg/kg OM1 by oral administration once a day for one month. Behavioral tests were performed to monitor cognitive activity after the last treatment. […] All mouse movements that occur in PhenoTyper (HomeCage) are recorded by a computerized tracking system, which calculates the time and number of entrances required to reach 80% of the performance standard (Noldus, Ethovision). […]
Flow cytometry sample preparation and analysis. […] All samples were counted and adjusted to a density of 2-3×10^6/100 μL, labeled with a Live/Dead kit for 30 min, and then centrifuged at 500×g for 3 min at 4° C. […]

Th1 cells [2] = test: Flow cytometry of brain Th1 cells in 5XFAD (Tg) mice; format: in vivo, mouse; conditions: 6-month-old 5XFAD mice, 50 mg/kg intraperitoneal daily for one month, versus vehicle
Procedure: Animals. Tg mice and co-housed WT mice (corresponding WT mice generated by mating Tg mice and C57 mice) were housed in the same cage after birth. […] All mice were kept in a 23° C. room with a 12-hour (h) light-dark cycle. Mice were randomly assigned to different groups before treatment. For time course analysis of Tg mice, male and female Tg mice were sacrificed at 2, 3, 5, 7 and 9 months of age. The mouse brain was collected and stained for immune cell analysis and cytokine analysis. […] For OM1 treatment, at the age of 6.5 months, based on 450 mg b.i.d. (twice a day) in the phase III trial, Tg mice were treated with 100 mg/kg OM1 by oral administration once a day for one month. […] The brains and feces of the mice were then used for different analyses.
Flow cytometry sample preparation and analysis. Mice were anesthetized, blood samples were collected into EDTA-containing tubes, and red blood cells were removed using 1×red blood lysis buffer. Before tissue collection, the brains were perfused with ice-cold PBS to avoid sampling the circulating blood immune cells, and the brains were removed, chopped into pieces and dissected according to the introduction of the Adult Brain Dissociation Kit (Miltenyi, Cat No. 130-107-677) using the gentleMACS dissociator (Miltenyi Biotec). The brain homogenate was filtered through a 70-μm cell strainer and centrifuged at 300×g for 5 min at 4° C. The cell pellet was resuspended in cold PBS buffer and centrifuged again at 300×g for 5 min at 4° C. All samples were counted and adjusted to a density of 2-3×10^6/100 μL, labeled with a Live/Dead kit for 30 min, and then centrifuged at 500×g for 3 min at 4° C. The cells were resuspended in 100 μL PBS buffer, blocked with anti-CD16/32 (Biolegend, Cat No. 101320) for 10 min, and incubated with the antibody according to the manufacturers' protocols at 4° C. for 30 min. […]

SLC7A5 = target: T1, SLC7A5 (Mus musculus, UniProt Q9Z127); test: Uptake of ^13C-labelled phenylalanine by naive CD4^+ T cells; format: cell-based; conditions: 0.5 h incubation
T1 construct: endogenous in cells; host or cells: naive CD4+ T cells from splenocytes of C57BL/6 mice (Th0 and IL-12-induced Th1)
Procedure: Uptake of phenylalanine. Naive CD4^+ T cells were separated from the splenocytes of 8-month-old C57BL/6 female mice using the Naive CD4^+ T cell Isolation Kit (Stem Cell, Cat No. 19765) and were induced to Th1 differentiation by 20 ng/mL IL-12. After 3 days, a total of 5×10^5 cells/well Th1 cells and Th0 cells in 0.5 mL of RPMI-1640 medium were plated into 48-well plates. ^13C-labelled phenylalanine and 5 mM amino transporter inhibitor BCH were added into indicated wells. After 0.5 h, cells were collected and washed twice with ice-cold D-PBS. 50 μL deionized water was added and cells were lysed through freezing and thawing twice at −80° C. The cell lysate was centrifuged at 12000×g for 10 min and ^13C-labelled phenylalanine in the supernatant was analyzed by Mass spectrometry.

LAT1 = LAT1 (Homo sapiens, UniProt Q01650); conditions: cited from earlier work
LAT1, sequence (Q01650 whole entry, species assumed): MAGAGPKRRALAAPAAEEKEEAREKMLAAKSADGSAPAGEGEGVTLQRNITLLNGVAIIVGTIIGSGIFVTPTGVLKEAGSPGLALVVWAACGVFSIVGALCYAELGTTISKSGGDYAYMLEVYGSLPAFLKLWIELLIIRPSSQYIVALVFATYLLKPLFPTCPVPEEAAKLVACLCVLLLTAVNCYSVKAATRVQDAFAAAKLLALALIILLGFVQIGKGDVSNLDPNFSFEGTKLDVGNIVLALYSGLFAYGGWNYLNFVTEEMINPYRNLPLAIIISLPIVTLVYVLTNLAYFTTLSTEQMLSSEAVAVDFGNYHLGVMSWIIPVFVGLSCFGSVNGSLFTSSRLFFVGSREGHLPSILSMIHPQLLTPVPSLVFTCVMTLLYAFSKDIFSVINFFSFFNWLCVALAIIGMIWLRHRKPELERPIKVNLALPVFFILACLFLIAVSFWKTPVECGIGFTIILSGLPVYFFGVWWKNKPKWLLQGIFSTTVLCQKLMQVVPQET
LAT1, sequence (P08195 102-630 partner, species assumed): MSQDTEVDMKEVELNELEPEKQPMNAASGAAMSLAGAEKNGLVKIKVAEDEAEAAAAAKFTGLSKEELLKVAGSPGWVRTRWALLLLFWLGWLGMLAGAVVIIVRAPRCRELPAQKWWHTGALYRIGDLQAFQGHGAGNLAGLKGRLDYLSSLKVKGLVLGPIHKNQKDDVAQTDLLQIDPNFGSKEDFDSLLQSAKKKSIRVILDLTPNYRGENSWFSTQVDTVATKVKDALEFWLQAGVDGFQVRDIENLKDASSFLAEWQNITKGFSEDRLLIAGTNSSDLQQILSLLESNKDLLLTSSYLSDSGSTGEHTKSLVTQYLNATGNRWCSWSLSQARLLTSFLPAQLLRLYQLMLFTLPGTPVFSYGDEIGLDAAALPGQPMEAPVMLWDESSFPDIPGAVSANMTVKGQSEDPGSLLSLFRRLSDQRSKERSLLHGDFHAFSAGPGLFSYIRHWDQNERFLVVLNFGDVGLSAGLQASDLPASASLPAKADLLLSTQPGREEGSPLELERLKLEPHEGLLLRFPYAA

T1 sequence (Q9Z127 whole entry): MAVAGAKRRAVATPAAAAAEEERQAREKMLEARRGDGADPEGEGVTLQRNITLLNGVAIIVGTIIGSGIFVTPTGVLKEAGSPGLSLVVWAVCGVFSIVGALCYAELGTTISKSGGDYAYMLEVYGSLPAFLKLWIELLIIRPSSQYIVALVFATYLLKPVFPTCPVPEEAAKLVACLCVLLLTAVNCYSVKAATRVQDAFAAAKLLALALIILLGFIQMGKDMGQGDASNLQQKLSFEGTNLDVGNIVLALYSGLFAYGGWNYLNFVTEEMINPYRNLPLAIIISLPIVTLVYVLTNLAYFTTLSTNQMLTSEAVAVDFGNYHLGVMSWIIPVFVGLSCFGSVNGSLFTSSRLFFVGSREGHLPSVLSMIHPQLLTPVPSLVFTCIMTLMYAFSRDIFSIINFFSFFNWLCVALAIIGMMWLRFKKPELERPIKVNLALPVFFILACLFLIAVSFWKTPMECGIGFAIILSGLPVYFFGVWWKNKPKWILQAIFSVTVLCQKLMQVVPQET
T1 sequence (P10852 whole entry partner): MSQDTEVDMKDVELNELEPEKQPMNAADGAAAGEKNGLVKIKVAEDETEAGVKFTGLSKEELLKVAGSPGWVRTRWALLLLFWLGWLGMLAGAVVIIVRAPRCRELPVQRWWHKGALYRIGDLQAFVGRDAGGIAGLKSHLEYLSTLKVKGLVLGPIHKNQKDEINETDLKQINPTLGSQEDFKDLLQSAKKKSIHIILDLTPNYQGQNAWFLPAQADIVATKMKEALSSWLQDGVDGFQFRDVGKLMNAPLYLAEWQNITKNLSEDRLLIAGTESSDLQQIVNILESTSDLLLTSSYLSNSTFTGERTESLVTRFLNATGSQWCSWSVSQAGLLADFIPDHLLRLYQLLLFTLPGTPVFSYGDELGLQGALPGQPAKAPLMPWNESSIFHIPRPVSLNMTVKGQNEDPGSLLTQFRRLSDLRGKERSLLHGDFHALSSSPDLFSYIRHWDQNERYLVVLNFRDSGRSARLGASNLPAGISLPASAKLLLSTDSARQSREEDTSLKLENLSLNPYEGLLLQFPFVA

Structure (SMILES)	Th0 cell differentiation into Th1 cells (naive CD4^+ T cells)	Th1 cell proliferation (naive CD4^+ T cells)	Th1 cell count in the blood (Th1 cells [1])	proportion of pro-inflammatory Th1 cells in the mouse brain (Th1 cells [2]; 50 mg/kg)	proportion of pro-inflammatory Th1 cells in the mouse brain (Th1 cells [2]; listed as JPH 203, 50 mg/kg)	uptake of ^13C-labelled phenylalanine by CD4^+ T cells (SLC7A5)	LAT1 inhibition, selectivity (LAT1)
CC[C@H](C)[C@H](N)C(=O)O [isoleucine]	increased	increased	increased significantly				
Nc1cc(COc2c(Cl)cc(C[C@H](N)C(=O)O)cc2Cl)c2oc(-c3ccccc3)nc2c1 [JPH203]				effectively inhibits; also recorded: significantly downregulated	significantly reduces	blocked	selectively inhibits LAT1
N[C@@H](Cc1ccccc1)C(=O)O [phenylalanine]	increased	increased	increased significantly				
